System: spinal cord injury-induced neurogenic pulmonary edema
Assay: Model of spinal cord injury-induced neurogenic pulmonary edema (laminectomy and spinal cord injury)
Format: in vivo, ICR mice
Settings: mice, example 1 granule 18 g/kg intragastric, dexamethasone 0.025 mg/kg intramuscular, 2 consecutive days from 24 h after molding, lungs taken on 3rd day, n = 8, x ± s
Excerpt: It is a typical molding method of an animal with neurogenic pulmonary edema by performing laminectomy on a rate to cause spine injury and thus inducing pulmonary edema of the mouse. The molding method is simple and easy to implement and high in success rate.
4-6 week old male ICR mice weighed 23-25 g were provided by the Lunan Pharmaceutical Co., Ltd and adaptively fed for one week before an experiment.
40 mice were taken and randomly divided into a sham surgery group, a model group, a dexamethasone group, an example 1 granule group, and a dexamethasone+example 1 granule group, with 8 mice in each group. The rats in the sham surgery group were subjected to laminectomy without spinal cord injury, while the rats in the model group and each administration group were subjected to laminectomy and spinal cord injury. […] The animals were anesthetized and sacrificed on the 3rd of the molding, the lungs were taken out, the wet weight was weighed, the lungs were placed in a 60° C. oven for drying for 48 h and taken out, the dry weight was weighed, and a ratio of wet weight/dry weight was calculated.

With `C[C@@H]1C[C@H]2[C@@H]3CCC4=CC(=O)C=C[C@]4(C)[C@@]3(F)[C@@H](O)C[C@]2(C)[C@@]1(O)C(=O)CO` [Dexamethasone, dexamethasone] the “Lung wet weight/dry weight” value was 4.92 ± 0.13.

Reference: patent US20240390448A1, “USE OF TRADITIONAL CHINESE MEDICINE COMPOSITION IN PREPARATION OF DRUGS FOR TREATING NEUROGENIC PULMONARY EDEMA” (SHANDONG NEW TIME PHARMACEUTICAL CO., LTD., priority 2021, published 2024)
